# Laboratory results published in patent publication US8227470B2, “Combination treatment of solid cancers with antimetabolites and tyrosine kinase inhibitors” (AB Science, priority 2007, dated 2012).
# Entries after “also recorded” stand apart in the source; their conditions may differ.
# Experiments:
# breast tumour cell lines = assay: WST-1 proliferation assay, breast lines with docetaxel; type: cell-based
# Description: (§1) Pancreatic, colon and prostate cancer cell lines (generous gift from Dr. Juan Iovanna, INSERM U624, Marseille, France), breast and ovarian cancer cell lines (generous gift from Dr. Patrice Dubreuil, UMR 599 INSERM, Marseille, France), and lung cancer cell line (generous gift from Pr. Christian Auclair, UMR 8113 CNRS) were cultured as monolayers in RPMI 1640 medium containing L-glutamine supplemented with 100 U/mL penicillin and 100 μg/mL streptomycin, and 10% v/v heat-inactivated foetal calf serum (AbCys Lot SO2823S1800) under standard culture conditions (5% CO2, 95% air in humidified chamber at 37° C.).
# (§2) During proliferation assay, all cells were grown in medium containing 1% FCS.
# (§3) Colorimetric cell proliferation and viability assay (reagent WST-1 purchased from Roche cat N° 1644807)
# (§4) The cells were washed once and resuspended in RPMI 1% FCS. […]
# (§5) For treatment with combination of AB1010 and gemcitabine, the cells were first resuspended in medium RPMI 1% FCS containing AB1010 at the concentrations of 0, 2, 5 and 10 μM. […] The absorbance of the samples was measured at 490 nm using an EL800 Universal microplate reader (Bio-Tek Instruments Inc.).
# (§6) Each sample was done in duplicate, the absorbance values were transferred to an excel file, the average and standard deviation of the duplicates were calculated and expressed as a percentage of the proliferation obtained in absence of treatment. […]
# [1] = test system: cell line (Ba/F3-derived) expressing JMΔ27; assay: Apoptosis induction in Ba/F3-derived cell line; type: cell-based
# Description: (§7) In this experiment, after 48 hours, 0.1 μM AB1010 induced apoptosis of approximately 50% versus control cells in which 10% of cells were apoptotic. In addition, a separate cell line (Ba/F3-derived) expressing JMΔ27 was tested and apoptosis was induced to a level of approximately 85%.
# FAK kinase [2] = biological target: T1, FAK kinase (Homo sapiens, UniProt Q05397); assay: Western blot of FAK activation status (anti PY / anti phospho FAK); type: cell-based; settings: FIG. 3B
# Text: Pancreatic tumour cells lines are described to express high level of the non-receptor tyrosine kinase FAK that contributes to resistance to gemcitabine. […] By the use of either anti PY or anti phospho FAK antibodies, we studied by western blot assay the activation status of FAK kinase.
# [3] = test system: human mast cell line expressing the JMΔ27 mutated c-kit; assay: Apoptosis induction in mast cell line; type: cell-based; settings: 0.1 μM, after 48 hours; control cells 10% apoptotic
# Description: as §7
# [4] = test system: ovarian tumour cell lines; assay: WST-1 proliferation assay, ovarian lines with paclitaxel; type: cell-based
# Description: as §1, §2, §3, §4, §5, §6
# Panc-1 = assay: WST-1 cell proliferation and viability assay; type: cell-based
# Description: as §1, §2, §3
# (§8) The cells were washed once and resuspended in RPMI 1% FCS. Cells at 1.10^4/50 μl were plated per well of a 96 well plate.
# (§9) Drug dilutions were prepared in a 96 well plate and obtained by sequential dilutions of AB1010 or gemcitabine in RPMI 1.
# (§10) Treatment was started by the addition of 50 μl of a 2× concentrated drug solution to a final volume of 100 μl.
# (§11) For treatment with combination of AB1010 and gemcitabine, the cells were first resuspended in medium RPMI 1% FCS containing AB1010 at the concentrations of 0, 2, 5 and 10 μM. 1.10^4 cells/50 μl were plated per well of a 96 wells plate and the plates placed in the incubator o/n before treatment with cytotoxic agents. Cytotoxic agent treatment was initiated by addition of 50 μl of a 2× drug dilution (and containing the respective AB1010 drug concentration) to a final volume of 100 μl. AB1010 final concentrations remained 0, 2, 5 and 10 μM. After incubating for 48-72 hours at 37° C., 10 μl of a ½ dilution of WST-1 reagent was added to each well and the plates were returned to the incubator for an additional 4 hours. The absorbance of the samples was measured at 490 nm using an EL800 Universal microplate reader (Bio-Tek Instruments Inc.).
# (§12) A background control without cells was used as a blank for the ELISA reader.
# (§13) The positive control of the assay corresponds to the cell proliferation obtained in the absence of drug treatment (100% proliferation).
# (§14) Each sample was done in duplicate, the absorbance values were transferred to an excel file, the average and standard deviation of the duplicates were calculated and expressed as a percentage of the proliferation obtained in absence of treatment.
# (§15) To determine the IC50 concentration of gemcitabine on pancreatic cell lines, the cells were grown in 1% FCS and exposed to different doses of the drug.
# (§16) To determine the IC50 concentration of gemcitabine used in association with AB1010, pancreatic cell lines grown in 1% FCS were pre-treated with AB1010 for about 12-16 hours before being exposed to different doses of the gemcitabine.
# Capan-2 = assay: WST-1 cell proliferation and viability assay; type: cell-based
# Description: as §1, §2, §3, §8, §9, §10, §11, §12, §13, §14, §15, §16
# BxPC-3 = assay: WST-1 cell proliferation and viability assay; type: cell-based
# Description: as §1, §2, §3, §8, §9, §10, §11, §12, §13, §14, §15, §16
# FAK kinase [5] = biological target: T1, FAK kinase; assay: SelectScreen kinase Profiling (Invitrogen), purified kinases; type: biochemical; settings: inhibitor at 1 μM (1,000 nM); for inhibition at 1 µM: read-out: Percentage of inhibition of FAK kinase activity
# [6] = test system: lung A549 and H1299 cell lines; assay: WST-1 proliferation assay, sensitization to gemcitabine; type: cell-based; settings: AB1010 pre-treatment
# Description: as §1, §2, §3, §8, §11, §14
# (§17) In order to evaluate the ability of AB1010 to sensitize other tumour types to gemcitabine, we performed similar studies on prostate, lung, ovarian and colon tumour cell lines.
# colon HT-29 = assay: as above; type: cell-based; settings: colon HT-29, the one resistant line in which sensitivity was not restored
# Description: as §1, §2, §3, §8, §11, §14, §17
# [7] = test system: prostate DU145, and C4-2 cell lines; assay: as above; type: cell-based; settings: AB1010 pre-treatment
# Description: as §1, §2, §3, §8, §11, §14, §17
# [8] = test system: rectum HRT-18, and colon Caco-2 and SW-480 cell lines; assay: as above; type: cell-based; settings: rectum HRT-18, colon Caco-2 and SW-480; AB1010 pre-treatment
# Description: as §1, §2, §3, §8, §11, §14, §17
# [9] = test system: ovarian OVCAR-3 cell lines; assay: as above; type: cell-based; settings: AB1010 pre-treatment
# Description: as §1, §2, §3, §8, §11, §14, §17
# Mia Paca-2 = assay: WST-1 cell proliferation and viability assay; type: cell-based; settings: for sensitization to gemcitabine by pre-treatment: MiaPaca-2, pre-treatment 12-16 hours (AB1010 5 and 10 μM; STI571 up to 10 μM) before gemcitabine
# Description: as §1, §2, §3, §8, §9, §10
# as §11, with “AB1010 final concentrations remained 0, 2, 5 and 10 μM. After incubating for 48-72 hours at 37° C., 10 μl of a ½ dilution of WST-1 reagent was added to each well and the plates were returned to the incubator for an additional 4 hours.” left out
# A background control without cells was used as a blank for the ELISA reader. […]
# as §6
# HRT-18 = assay: WST-1 proliferation assay, sensitization to Irinotecan; type: cell-based; settings: most resistant colorectal cell line HRT-18; AB1010 pre-treatment
# Description: as §1, §2, §3, §8
# […] The absorbance of the samples was measured at 490 nm using an EL800 Universal microplate reader (Bio-Tek Instruments Inc.).
# as §6
# T1 sequence (Q05397 whole entry): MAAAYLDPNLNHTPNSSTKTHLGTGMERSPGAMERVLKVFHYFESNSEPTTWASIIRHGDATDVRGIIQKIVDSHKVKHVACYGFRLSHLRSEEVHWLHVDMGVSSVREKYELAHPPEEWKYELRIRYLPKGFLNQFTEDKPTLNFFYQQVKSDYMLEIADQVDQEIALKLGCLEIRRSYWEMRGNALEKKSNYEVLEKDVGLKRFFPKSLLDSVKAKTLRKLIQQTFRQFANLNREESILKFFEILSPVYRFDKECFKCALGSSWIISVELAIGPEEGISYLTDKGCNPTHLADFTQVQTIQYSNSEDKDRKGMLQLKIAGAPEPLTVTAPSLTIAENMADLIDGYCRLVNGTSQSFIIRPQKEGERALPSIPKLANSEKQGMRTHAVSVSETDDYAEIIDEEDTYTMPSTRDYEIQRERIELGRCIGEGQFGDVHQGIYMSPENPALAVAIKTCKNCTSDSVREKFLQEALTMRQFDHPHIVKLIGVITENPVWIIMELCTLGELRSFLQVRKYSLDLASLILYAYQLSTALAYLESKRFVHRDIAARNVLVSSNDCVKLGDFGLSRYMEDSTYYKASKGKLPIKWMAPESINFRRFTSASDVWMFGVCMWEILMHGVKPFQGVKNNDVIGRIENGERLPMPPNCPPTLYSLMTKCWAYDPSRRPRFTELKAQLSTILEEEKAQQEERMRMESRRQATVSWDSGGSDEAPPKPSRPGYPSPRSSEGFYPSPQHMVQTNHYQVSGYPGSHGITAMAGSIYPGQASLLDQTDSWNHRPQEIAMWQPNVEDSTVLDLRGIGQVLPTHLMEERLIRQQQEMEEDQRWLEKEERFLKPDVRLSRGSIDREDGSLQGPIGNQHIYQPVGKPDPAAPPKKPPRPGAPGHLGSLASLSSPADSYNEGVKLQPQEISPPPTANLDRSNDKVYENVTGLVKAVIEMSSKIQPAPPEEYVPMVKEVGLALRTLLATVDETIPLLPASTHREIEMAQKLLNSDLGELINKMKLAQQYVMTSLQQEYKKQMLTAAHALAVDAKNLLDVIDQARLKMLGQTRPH
smiles,measurement,setting,value
"Cc1ccc(NC(=O)c2ccc(CN3CCN(C)CC3)cc2)cc1Nc1nc(-c2cccnc2)cs1 [AB1010, 4-(4-Methyl-piperazin-1-ylmethyl)-N-[4-methyl-3-(4-pyridin-3-yl-thiazol-2-ylamino)-phenyl]-benzamide]",sensitization to docetaxel,"breast tumour cell lines; docetaxel-resistant breast cancer cell lines, AB1010 pre-treatment",good sensitization by AB1010 for 6 out of 11
same,apoptosis induced,[1],approximately 85%
same,inhibition of FAK autoactivation,FAK kinase [2],inhibits partially
same,apoptosis induced,[3],approximately 50%
same,restoration of sensitivity to Paclitaxel,"[4]; resistant ovarian tumour cell lines, AB1010 pre-treatment",restores sensitivity
same,sensitization to gemcitabine by pre-treatment,"Panc-1; Panc-1, AB1010 5 and 10 μM pre-treatment 12-16 hours before gemcitabine",reverse resistance
same,sensitization to gemcitabine by pre-treatment,"Capan-2; gemcitabine-sensitive Capan-2, AB1010 pre-treatment",not observed
same,sensitization to gemcitabine by pre-treatment,"BxPC-3; gemcitabine-sensitive BxPC-3, AB1010 pre-treatment",not observed
same,inhibition at 1 µM,FAK kinase [5],21%
same,sensitization to gemcitabine,[6],AB1010 sensitizes lung A549 and H1299 cell lines to gemcitabine
same,restoration of sensitivity to gemcitabine,colon HT-29,except one
same,sensitization to gemcitabine,[7],"AB1010 sensitizes prostate DU145, and C4-2 cell lines to gemcitabine"
same,sensitization to gemcitabine,[8],"AB1010 sensitizes rectum HRT-18, and colon Caco-2 and SW-480"
same,sensitization to gemcitabine,[9],AB1010 sensitizes ovarian OVCAR-3 cell lines to gemcitabine
same,sensitization to gemcitabine by pre-treatment,Mia Paca-2,reverse resistance
same,sensitization to Irinotecan (CPT-11),HRT-18,good sensitization
"CC(=O)O[C@@]12CO[C@@H]1C[C@H](O)[C@@]1(C)C(=O)[C@H](O)C3=C(C)[C@@H](OC(=O)[C@H](O)[C@@H](NC(=O)OC(C)(C)C)c4ccccc4)C[C@@](O)([C@@H](OC(=O)c4ccccc4)[C@H]21)C3(C)C [Docetaxel, reference compound]",sensitivity to Docetaxel,"breast tumour cell lines; breast cancer cell lines, drug alone",most of the breast cancer cell lines tested exhibit resistance
CC(C)(C)n1nc(-c2ccc(Cl)cc2)c2c(N)ncnc21 [PP2],Percentage of inhibition of FAK kinase activity,FAK kinase [5],75%
"CC(=O)O[C@H]1C(=O)[C@@]2(C)[C@H]([C@H](OC(=O)c3ccccc3)[C@]3(O)C[C@H](OC(=O)[C@H](O)[C@@H](NC(=O)c4ccccc4)c4ccccc4)C(C)=C1C3(C)C)[C@]1(OC(C)=O)CO[C@@H]1C[C@@H]2O [Paclitaxel, reference compound]",sensitivity to Paclitaxel,"[4]; five ovarian cell lines, drug alone",Three out of the five ovarian cell lines tested exhibit strong sensitivity
Cc1ccc(NC(=O)c2ccc(CN3CCN(C)CC3)cc2)cc1Nc1nccc(-c2cccnc2)n1 [STI571],inhibition at 1 µM,FAK kinase [5],9%
same,sensitization to gemcitabine by pre-treatment,Mia Paca-2,does not sensitize; also recorded: does not lead to the same result
"Nc1ccn(C2OC(CO)C(O)C2(F)F)c(=O)n1 (stereo not shown) [gemcitabine, 4-amino-1-[3,3-difluoro-4-hydroxy-5-(hydroxymethyl)tetrahydrofuran-2-yl]-1H-pyrimidin-2-one, reference compound]",sensitivity to gemcitabine,"Panc-1; Panc-1, 1% FCS, drug alone",lack of sensitivity
same,IC50,"Capan-2; Homo sapiens, Capan-2, 1% FCS, drug alone, read-out: IC50, inhibition of proliferation",2 to 20 nM
same,IC50,"BxPC-3; Homo sapiens, BxPC-3, 1% FCS, drug alone, read-out: IC50, inhibition of proliferation",2 to 20 nM
same,sensitivity to gemcitabine,"Mia Paca-2; Mia Paca-2, 1% FCS, drug alone",lack of sensitivity
